According to the supplement of paper PMC12463676, “Small-molecule dissolution of stress granules by redox modulation benefits ALS models” (Nature Chemical Biology, 2025):

Tests used:
lipoamide = compound: NC(=O)CCCCC1CCSS1 [lipoamide]; test: thermal stability z-score vs DMSO; higher = more thermally stabilized by treatment; conditions: HeLa, lipoamide concentration 100 µM
Protocol: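 Cellular thermal proteome profiling in HeLa cells. Cells were treated with 100 µM lipoamide for 1 h, with or without 1 mM arsenate for a further 1 h, then heated to ten temperatures (37-66.3 °C), and soluble protein was quantified by TMT mass spectrometry relative to 0.1% DMSO controls. The thermal stability score (sum of log2 fold changes minus the abundance score) was transformed to a z-score; mean of n = 3 experiments.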

potassium arsenate = compound: O=[As]([O-])(O)O.[K+] [potassium arsenate]; test: as above; conditions: HeLa; arsenate concentration 1 mM
Protocol: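 Cellular thermal proteome profiling in HeLa cells treated with 1 mM arsenate for 1 h (DMSO pretreatment), heated to ten temperatures (37-66.3 °C). Soluble protein was quantified by TMT mass spectrometry relative to DMSO controls; the thermal stability score was transformed to a z-score; mean of n = 3 experiments.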

[1] = arsenate co-treatment: 1 mM arsenate 1 h
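Further: each temperature applied for 3 min, abundance score taken as mean log2 fold change at the two lowest temperatures, z-score obtained by mean subtraction and division by SD.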

UniProt Q8WYA0, sequence (Q8WYA0 whole entry): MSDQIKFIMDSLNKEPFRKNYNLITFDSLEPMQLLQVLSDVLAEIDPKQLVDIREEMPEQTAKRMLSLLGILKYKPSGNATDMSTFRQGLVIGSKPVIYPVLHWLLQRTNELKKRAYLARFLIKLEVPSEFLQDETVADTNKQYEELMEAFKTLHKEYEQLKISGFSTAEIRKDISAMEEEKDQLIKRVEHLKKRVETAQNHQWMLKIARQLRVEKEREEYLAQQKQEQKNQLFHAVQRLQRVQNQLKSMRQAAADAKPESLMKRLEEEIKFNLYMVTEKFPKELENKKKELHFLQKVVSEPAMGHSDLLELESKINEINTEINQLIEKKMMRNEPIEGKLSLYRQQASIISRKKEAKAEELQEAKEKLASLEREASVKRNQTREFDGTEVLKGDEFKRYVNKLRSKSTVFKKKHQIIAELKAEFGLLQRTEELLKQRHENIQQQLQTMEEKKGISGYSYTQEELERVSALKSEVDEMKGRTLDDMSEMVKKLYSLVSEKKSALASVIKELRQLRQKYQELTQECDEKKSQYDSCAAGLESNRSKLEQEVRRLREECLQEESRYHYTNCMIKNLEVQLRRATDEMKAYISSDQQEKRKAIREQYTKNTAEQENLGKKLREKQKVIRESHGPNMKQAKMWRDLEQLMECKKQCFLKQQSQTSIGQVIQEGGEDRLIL
UniProt P48735, sequence (P48735 whole entry): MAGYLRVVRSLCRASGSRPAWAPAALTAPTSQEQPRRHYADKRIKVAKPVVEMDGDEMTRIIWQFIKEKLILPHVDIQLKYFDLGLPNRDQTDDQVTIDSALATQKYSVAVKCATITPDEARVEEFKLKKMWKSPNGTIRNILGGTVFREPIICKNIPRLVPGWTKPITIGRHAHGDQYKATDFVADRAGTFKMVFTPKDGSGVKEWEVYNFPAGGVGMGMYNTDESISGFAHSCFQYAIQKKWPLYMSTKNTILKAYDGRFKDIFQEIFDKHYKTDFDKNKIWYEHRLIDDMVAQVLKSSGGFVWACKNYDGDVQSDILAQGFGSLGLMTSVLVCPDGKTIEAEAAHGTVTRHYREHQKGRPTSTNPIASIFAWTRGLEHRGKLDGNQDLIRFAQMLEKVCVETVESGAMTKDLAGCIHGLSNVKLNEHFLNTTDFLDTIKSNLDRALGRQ
UniProt O43837, sequence (O43837 whole entry): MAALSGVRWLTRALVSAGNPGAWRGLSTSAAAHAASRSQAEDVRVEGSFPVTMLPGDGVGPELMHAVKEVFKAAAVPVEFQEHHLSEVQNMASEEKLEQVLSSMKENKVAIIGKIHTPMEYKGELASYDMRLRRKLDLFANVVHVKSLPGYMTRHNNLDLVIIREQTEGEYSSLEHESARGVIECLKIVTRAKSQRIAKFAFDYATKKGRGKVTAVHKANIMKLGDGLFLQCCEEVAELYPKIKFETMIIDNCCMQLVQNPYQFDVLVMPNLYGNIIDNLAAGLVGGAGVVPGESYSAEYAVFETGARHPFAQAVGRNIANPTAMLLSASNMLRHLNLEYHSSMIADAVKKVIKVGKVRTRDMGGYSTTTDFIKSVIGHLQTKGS
UniProt Q27J81, sequence (Q27J81 whole entry): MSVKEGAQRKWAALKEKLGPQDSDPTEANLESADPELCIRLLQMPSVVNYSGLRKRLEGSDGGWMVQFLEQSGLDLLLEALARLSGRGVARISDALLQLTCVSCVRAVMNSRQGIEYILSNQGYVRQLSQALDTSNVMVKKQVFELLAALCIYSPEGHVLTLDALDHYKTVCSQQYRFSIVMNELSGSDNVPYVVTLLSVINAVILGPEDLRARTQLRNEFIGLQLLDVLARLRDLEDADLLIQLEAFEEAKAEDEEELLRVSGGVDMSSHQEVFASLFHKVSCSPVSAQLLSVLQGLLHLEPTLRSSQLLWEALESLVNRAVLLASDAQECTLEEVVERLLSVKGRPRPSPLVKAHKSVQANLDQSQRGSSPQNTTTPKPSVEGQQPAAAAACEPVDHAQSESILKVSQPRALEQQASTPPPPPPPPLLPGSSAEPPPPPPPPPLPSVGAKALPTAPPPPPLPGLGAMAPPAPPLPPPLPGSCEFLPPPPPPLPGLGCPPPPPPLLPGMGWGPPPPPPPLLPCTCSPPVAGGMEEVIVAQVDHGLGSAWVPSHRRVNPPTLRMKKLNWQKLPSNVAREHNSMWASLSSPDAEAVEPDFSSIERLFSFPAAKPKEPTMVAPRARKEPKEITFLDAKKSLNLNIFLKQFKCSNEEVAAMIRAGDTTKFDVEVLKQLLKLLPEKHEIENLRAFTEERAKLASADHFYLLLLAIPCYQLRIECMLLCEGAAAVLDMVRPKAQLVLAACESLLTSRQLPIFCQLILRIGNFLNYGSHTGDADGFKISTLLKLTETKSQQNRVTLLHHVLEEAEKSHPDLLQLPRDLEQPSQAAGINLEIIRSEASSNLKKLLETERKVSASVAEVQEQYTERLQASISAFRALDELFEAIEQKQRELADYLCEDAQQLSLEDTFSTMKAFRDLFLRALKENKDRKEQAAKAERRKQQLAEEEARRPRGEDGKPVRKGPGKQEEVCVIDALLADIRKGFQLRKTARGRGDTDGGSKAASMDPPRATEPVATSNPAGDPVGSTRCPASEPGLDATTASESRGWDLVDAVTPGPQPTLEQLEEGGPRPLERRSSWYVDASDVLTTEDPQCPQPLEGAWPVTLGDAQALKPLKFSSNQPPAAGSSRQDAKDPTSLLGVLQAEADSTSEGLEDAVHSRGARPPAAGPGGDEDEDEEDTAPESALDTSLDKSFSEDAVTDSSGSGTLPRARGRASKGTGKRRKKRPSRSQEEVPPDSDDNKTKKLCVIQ
UniProt A1L0T0, sequence (A1L0T0 whole entry): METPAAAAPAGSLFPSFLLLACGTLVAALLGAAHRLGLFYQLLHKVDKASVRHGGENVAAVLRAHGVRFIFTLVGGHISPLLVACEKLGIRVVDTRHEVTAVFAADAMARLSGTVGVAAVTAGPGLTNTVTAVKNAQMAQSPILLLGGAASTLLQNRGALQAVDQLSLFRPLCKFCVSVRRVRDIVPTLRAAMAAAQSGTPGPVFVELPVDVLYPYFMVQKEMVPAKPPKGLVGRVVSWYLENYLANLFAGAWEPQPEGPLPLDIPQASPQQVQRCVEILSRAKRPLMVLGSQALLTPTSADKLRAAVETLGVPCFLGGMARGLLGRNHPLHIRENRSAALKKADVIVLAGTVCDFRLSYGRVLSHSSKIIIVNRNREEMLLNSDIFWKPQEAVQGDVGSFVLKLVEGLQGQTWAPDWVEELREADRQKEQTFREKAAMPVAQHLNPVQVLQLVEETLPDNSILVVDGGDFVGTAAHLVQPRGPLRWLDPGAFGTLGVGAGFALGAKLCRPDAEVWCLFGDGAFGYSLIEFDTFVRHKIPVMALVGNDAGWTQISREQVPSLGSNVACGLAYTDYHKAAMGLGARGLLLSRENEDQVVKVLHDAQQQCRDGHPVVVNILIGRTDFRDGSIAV
UniProt Q12905, sequence (Q12905 whole entry): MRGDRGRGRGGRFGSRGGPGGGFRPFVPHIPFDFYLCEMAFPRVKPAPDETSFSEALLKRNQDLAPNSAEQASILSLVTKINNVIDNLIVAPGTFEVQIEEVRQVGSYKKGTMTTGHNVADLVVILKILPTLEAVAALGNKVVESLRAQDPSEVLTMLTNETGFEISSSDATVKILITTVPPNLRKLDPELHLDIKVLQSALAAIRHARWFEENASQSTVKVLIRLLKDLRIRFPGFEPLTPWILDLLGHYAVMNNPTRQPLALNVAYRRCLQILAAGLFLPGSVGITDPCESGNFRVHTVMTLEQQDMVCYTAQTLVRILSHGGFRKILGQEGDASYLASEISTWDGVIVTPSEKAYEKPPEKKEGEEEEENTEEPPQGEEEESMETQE
UniProt P09913, sequence (P09913 whole entry): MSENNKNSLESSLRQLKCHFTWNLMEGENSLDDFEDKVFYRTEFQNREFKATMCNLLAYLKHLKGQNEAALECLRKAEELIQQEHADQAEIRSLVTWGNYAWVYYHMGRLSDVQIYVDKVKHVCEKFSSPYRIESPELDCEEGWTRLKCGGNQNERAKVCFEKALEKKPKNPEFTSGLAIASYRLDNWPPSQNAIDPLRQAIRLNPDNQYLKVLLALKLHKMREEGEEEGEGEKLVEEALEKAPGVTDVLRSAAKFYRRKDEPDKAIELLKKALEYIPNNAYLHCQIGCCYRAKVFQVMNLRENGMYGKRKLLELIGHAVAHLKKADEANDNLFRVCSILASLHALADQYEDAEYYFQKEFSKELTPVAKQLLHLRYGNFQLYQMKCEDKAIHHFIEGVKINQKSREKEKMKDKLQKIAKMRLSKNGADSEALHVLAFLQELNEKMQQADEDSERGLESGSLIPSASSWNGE
UniProt P80217, sequence (P80217 whole entry): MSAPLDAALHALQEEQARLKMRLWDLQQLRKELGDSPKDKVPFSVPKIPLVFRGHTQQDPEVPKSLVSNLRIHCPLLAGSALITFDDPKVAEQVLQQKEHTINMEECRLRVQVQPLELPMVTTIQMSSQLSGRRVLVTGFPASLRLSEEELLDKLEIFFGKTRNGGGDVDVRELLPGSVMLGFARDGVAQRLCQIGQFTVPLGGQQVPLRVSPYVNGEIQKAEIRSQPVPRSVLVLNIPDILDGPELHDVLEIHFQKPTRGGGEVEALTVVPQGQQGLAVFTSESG
UniProt O00458, sequence (O00458 whole entry): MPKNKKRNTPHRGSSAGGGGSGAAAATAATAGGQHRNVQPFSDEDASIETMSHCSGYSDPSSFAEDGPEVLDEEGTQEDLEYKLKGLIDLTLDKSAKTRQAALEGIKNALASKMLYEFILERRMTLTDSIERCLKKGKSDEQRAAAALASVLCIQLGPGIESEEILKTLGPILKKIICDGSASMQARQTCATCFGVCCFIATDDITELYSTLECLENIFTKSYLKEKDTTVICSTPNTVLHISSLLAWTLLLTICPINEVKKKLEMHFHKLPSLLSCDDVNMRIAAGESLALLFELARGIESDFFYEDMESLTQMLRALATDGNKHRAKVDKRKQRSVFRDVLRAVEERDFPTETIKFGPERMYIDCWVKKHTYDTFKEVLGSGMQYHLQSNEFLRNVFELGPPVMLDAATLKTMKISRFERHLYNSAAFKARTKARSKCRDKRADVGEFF

Row | Target | thermal stability z-score (lipoamide; [1]) | thermal stability z-score (lipoamide; arsenate co-treatment: none) | thermal stability z-score (potassium arsenate)
1 | IDE (UniProt P14735) | 0.708 | 0.717 | 1.24
2 | IDH1 (UniProt O75874) | 0.0654 | -0.257 | -0.596
3 | IDH2 (UniProt P48735) | -0.129 | 0.0632 | -0.911
4 | IDH3A (UniProt P50213) | -0.0281 | -0.439 | -1.11
5 | IDH3B (UniProt O43837) | 0.075 | -1.17 | -1.28
6 | IDH3G (UniProt P51553) | 0.738 | -0.664 | -0.189
7 | IDI1 (UniProt Q13907) | 1.01 | 0.458 | 0.042
8 | IFI16 (UniProt Q16666) | 0.022 | 0.122 | -0.386
9 | IFI30 (UniProt P13284) | 1.71 | 0.524 | -0.049
10 | IFI35 (UniProt P80217) | 1.36 | 0.774 | 2.08
11 | IFIT1 (UniProt P09914) | -0.626 | -0.265 | 0.419
12 | IFIT2 (UniProt P09913) | -0.00168 | -0.0988 | -0.392
13 | IFIT3 (UniProt O14879) | 0.00563 | -0.0242 | -0.0781
14 | IFNGR1 (UniProt P15260) | -0.824 | -1.59 | -1.27
15 | IFRD1 (UniProt O00458) | -0.177 | -0.444 | 1.9
16 | IFRD2 (UniProt Q12894) | 0.798 | 0.638 | 3.33
17 | IFT27 (UniProt Q9BW83) | 0.856 | 0.225 | 0.151
18 | IFT74 (UniProt Q96LB3) | -0.121 | -0.049 | -0.115
19 | IFT81 (UniProt Q8WYA0) | -0.223 | -0.039 | -0.072
20 | IFT122 (UniProt Q9HBG6) | 0.185 | 0.177 | 0.188
21 | IFT140 (UniProt Q96RY7) | -0.182 | -0.038 | 0.083
22 | IGBP1 (UniProt P78318) | 0.172 | 0.441 | -0.613
23 | IGF1R (UniProt P08069) | 0.294 | 0.324 | 0.987
24 | IGF2BP1 (UniProt Q9NZI8) | -0.0135 | 0.286 | -0.379
25 | IGF2BP2 (UniProt Q9Y6M1) | -0.00758 | 0.044 | -0.165
26 | IGF2BP3 (UniProt O00425) | -0.521 | -0.325 | -0.579
27 | IGF2R (UniProt P11717) | -1.48 | -0.964 | -0.374
28 | IGHMBP2 (UniProt P38935) | 0.0798 | 0.0388 | -0.187

Row | Target | thermal stability z-score (lipoamide; [1]) | thermal stability z-score (lipoamide; arsenate co-treatment: none) | thermal stability z-score (potassium arsenate)
29 | IGSF3 (UniProt O75054) | 0.454 | -0.247 | -0.196
30 | IGSF8 (UniProt Q969P0) | 0.26 | 0.326 | 0.893
31 | IK (UniProt Q13123) | 1.25 | 0.908 | 1.75
32 | IKBIP (UniProt Q70UQ0) | -3.01 | -2.3 | -0.0459
33 | IKBKAP (UniProt O95163) | -0.193 | -0.141 | -0.261
34 | IKBKB (UniProt O14920) | -0.0799 | -0.108 | -0.426
35 | IKBKG (UniProt Q9Y6K9) | -0.275 | -0.162 | -0.992
36 | IL1RAP (UniProt Q9NPH3) | -0.15 | -0.0435 | -0.164
37 | IL6ST (UniProt P40189) | -1.74 | -1 | -1.84
38 | IL18 (UniProt Q14116) | 0.282 | -0.0498 | -0.226
39 | IL27RA (UniProt Q6UWB1) | -0.395 | 0.44 | 1.33
40 | ILF2 (UniProt Q12905) | 0.0392 | 0.153 | -1.96
41 | ILF3 (UniProt Q12906) | 1.39 | 0.801 | -1.11
42 | ILK (UniProt Q13418) | 0.201 | -0.00153 | 0.129
43 | ILKAP (UniProt Q9H0C8) | 0.624 | 0.292 | -0.406
44 | ILVBL (UniProt A1L0T0) | 1.34 | 0.509 | 0.772
45 | IMMT (UniProt Q16891) | 0.667 | 0.854 | 1.31
46 | IMP3 (UniProt Q9NV31) | -0.323 | -0.228 | 0.389
47 | IMPA1 (UniProt P29218) | 0.595 | 0.776 | 0.0144
48 | IMPA2 (UniProt O14732) | 0.737 | 0.182 | -0.728
49 | IMPACT (UniProt Q9P2X3) | 0.0967 | -0.0125 | 0.103
50 | IMPAD1 (UniProt Q9NX62) | -0.426 | -0.356 | -0.352
51 | IMPDH1 (UniProt P20839) | -0.546 | -0.319 | 1.28
52 | IMPDH2 (UniProt P12268) | -0.759 | -0.205 | 1.25
53 | IMUP (UniProt Q9GZP8) | -0.123 | -0.141 | 0.162
54 | INADL (UniProt Q8NI35) | -0.13 | -0.0923 | -0.0383
55 | INF2 (UniProt Q27J81) | -0.674 | -0.257 | 0.0741
